“Also recorded” adds a separate entry of the source. Where a name gives a salt, the structure may show the parent alone.
Legend:
Assay type in all cases: physicochemical
[1] = Crystal form transformation (solid form stability) of crystal polymorphs; conditions: for transformation of anhydrous crystals to monohydrate crystals: stirring at 25° C., depending on the percentage water content of the mother liquor, oxalate
Method: The Form 2 anhydrous crystals were also found to be excellent in operability such as filtration performance. Powder x-ray diffraction diagrams of the Form 1 and Form 2 anhydrous crystals of compound (1) are shown in FIGS. 1 and 2, respectively, and their diffraction diagrams based on thermal analysis are shown in FIGS. 5 and 6, respectively.
Compound (1a) was treated with anhydrous oxalic acid in 6% hydrous acetonitrile to obtain two crystal polymorphs of monohydrate crystals of the title compound represented by formula (1b) (this production method is described in Example 3 below). Powder x-ray diffraction diagrams of the Form 1 and Form 2 monohydrate crystals are shown in FIGS. 3 and 4, respectively, and their diffraction diagrams based on thermal analysis are shown in FIGS. 7 and 8, respectively.

[2] = Hygroscopicity of crystal polymorphs; conditions: among the crystal polymorphs of anhydrous crystals of compound (1)
[3] = Comparison of water solubility of crystals in hydrous toluene/acetonitrile; conditions: compared with monohydrate crystals of (1b) in the cis-form; water added to a 13% toluene/acetonitrile solution to change percentage water content
Method: Water was added to a 13% toluene/acetonitrile solution to change the percentage water content to compare water solubility between the monohydrate crystals of the compound represented by formula (1b) and the monohydrate crystals of the trans-isomer compound represented by formula (1b-trans).

CN(C)C(=O)[C@H]1CC[C@H](N)[C@H](NC(=O)OC(C)(C)C)C1 [Form 2 anhydrous crystals, tert-butyl {(1R,2S,5S)-2-amino-5-[(dimethylamino)carbonyl]cyclohexyl}carbamate oxalate]
transformation of anhydrous crystals to monohydrate crystals [1]: hardly transformed to monohydrate crystals | hygroscopicity [2]: much less hygroscopic

CN(C)C(=O)[C@H]1CC[C@@H](N)[C@H](NC(=O)OC(C)(C)C)C1 [(1b-trans)]
water solubility [3]: highly water-soluble; also recorded: more water-soluble

CN(C)C(=O)[C@H]1CC[C@H](N)[C@H](NC(=O)OC(C)(C)C)C1 [Form 1 monohydrate crystals, tert-butyl {(1R,2S,5S)-2-amino-5-[(dimethylamino)carbonyl]cyclohexyl}carbamate oxalate monohydrate]
crystal transformation when left standing ([1]; left at room temperature for approximately 2 hours): transformed to Form 2 monohydrate crystals

CN(C)C(=O)[C@H]1CC[C@H](N)[C@H](NC(=O)OC(C)(C)C)C1 [Form 1 anhydrous crystals, tert-butyl {(1R,2S,5S)-2-amino-5-[(dimethylamino)carbonyl]cyclohexyl}carbamate oxalate]
transformation of anhydrous crystals to monohydrate crystals [1]: transformed to monohydrate crystals

— patent US8901345B2, “Process for preparation of optically active diamine derivative salt” (Daiichi Sankyo Company, Limited, priority 2010, dated 2014)
